Experimental data: ChEMBL document CHEMBL3044694, “Induction of disease resistance by acibenzolar-S-methyl and o-hydroxyethylorutin against Botrytis cinerea in tomato plants” (Crop Prot, 2006)
Active and inactive are the calls of the source. No cut-off for these calls is given here.

How the values were obtained:
[1] = test system: Solanum lycopersicum; assay: (§1) Induction of systemic acquired resistance activity in Botrytis cinerea infected Solanum lycopersicum (tomato) leaves assessed as increase in guaiacol peroxidase activity at 0.3 mM applied as spray 24 hr prior to inoculation measured after 6 to 48 hr by colorimetric assay relative to untreated infected control; assay type: functional, organism-based
[2] = test system: Solanum lycopersicum; assay: as §1, with “untreated” for “untreated infected”; assay type: functional, organism-based
[3] = test system: Solanum lycopersicum; assay: Induction of systemic acquired resistance activity in Solanum lycopersicum (tomato) leaves assessed as decrease in hydroxyl radical generation at 0.3 mM applied as spray 24 hr prior to inoculation measured after 2 to 48 hr by TBARS assay relative to untreated control; assay type: functional, organism-based
[4] = test system: Solanum lycopersicum; assay: Induction of systemic acquired resistance activity in Botrytis cinerea infected Solanum lycopersicum (tomato) leaves assessed as increase in H2O2 level at 0.3 mM applied as spray 24 hr prior to inoculation measured after 2 to 6 hr relative to untreated infected control; assay type: functional, organism-based
[5] = test system: Solanum lycopersicum; assay: Induction of systemic acquired resistance activity in Botrytis cinerea infected Solanum lycopersicum (tomato) leaves assessed as induction of superoxide anion radical generation at 0.3 mM applied as spray 24 hr prior to inoculation measured after 2 to 6 hr by nitro blue tetrazolium reduction assay relative to control; assay type: functional, organism-based
[6] = test system: Solanum lycopersicum; assay: Induction of systemic acquired resistance activity in Botrytis cinerea infected Solanum lycopersicum (tomato) leaves assessed as increase in H2O2 level at 0.3 mM applied as spray 24 hr prior to inoculation measured after 2 to 6 hr relative to untreated control; assay type: functional, organism-based
[7] = test system: Solanum lycopersicum; assay: Phytotoxicity in Solanum lycopersicum (tomato) at 0.3 mM applied as spray; assay type: organism-based; conditions: in vivo, other, 300 µM
[8] = test system: Solanum lycopersicum; assay: Induction of systemic acquired resistance activity in Botrytis cinerea infected Solanum lycopersicum (tomato) leaves assessed as visible lesions on leaf surface at 0.3 mM applied as spray 24 hr prior to inoculation measured after 14 days (reference value: 66%); assay type: functional

Question: Which Activity [1] does the source give for `CSC(=O)c1cccc2nnsc12` [ACIBENZOLAR-S-METHYL] here?
Answer: Active

Question: And the Activity [2]?
Answer: Active

Question: What about the Activity [3] of the same compound?
Answer: Active

Question: What about the Activity [4] of the same compound?
Answer: Active

Question: What about the Activity [5] of the same compound?
Answer: Active

Question: What about the Activity [6] of the same compound?
Answer: Active

Question: And the Activity [7]?
Answer: Non-toxic

Question: What about the Activity [8] of the same compound?
Answer: 27%
